{"source": "paper PMC4552746", "about": "“Conformational Properties of Seven Toac-Labeled Angiotensin I Analogues Correlate with Their Muscle Contraction Activity and Their Ability to Act as ACE Substrates” (PLoS ONE, 2015)", "origin": "cited, not measured here", "test_system": "thoracic rabbit aorta strips", "set-up": "method as in earlier work", "conditions": "ref 48 (Cordopatis and Theodoropoulos)", "data": [{"substance": "[1-Aib]-angiotensin II [Aib^1-AngII]", "values": [{"measurement": "Potency, in words", "value": "displays high potency"}]}]}
